The GI50 is the concentration giving 50% growth inhibition.

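1) Cells in 96-well plates. 2) Compound, 48 h, 5 concentrations. 3) Linear interpolation between surrounding doses. 4) Unreached endpoint = highest concentration. The concentration for 50% growth inhibition is given as GI50.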 Active and inactive are the calls of the source. Cut-off read from the data, not from the text of the source: active = GI50 up to about 1.1 µM and inactive = higher. Bounds are passed on as bounds.

Holding throughout (assay): DTP human tumour cell line panel, 48 h
The test system of experiment [1] is DLD-1.
In experiment [2] the test system is DMS-273.
In experiment [3] the test system is KM-20L2.
In experiment [4] the test system is LXFL 529.
Experiment [5] has as its system XF498.
The test system of experiment [6] is DMS-114.

In the case of `Cc1cc(C)nc(NS(=O)(=O)c2ccc(NC(=O)c3cccn4c(=O)c5ccccc5nc34)cc2)n1`, the GI50 in experiment [1] is 31.9 µM (inactive); in experiment [2], 34.4 µM (inactive); in experiment [3] it was > 100 µM (inactive); in experiment [4], 29.3 µM (inactive); in experiment [5], 54.2 µM (inactive).
In the case of `Cc1cc(O)cc2c1O[C@@]1(C)CCC3[C@@]4(C)CC[C@H](O)C(C)(C)C4CC[C@@]3(C)[C@H]1C2` (some centres not stated), the GI50 in experiment [1] was 4.06 µM (inactive); in experiment [6] it was 5.09 µM (inactive); in experiment [2], 4.05 µM (inactive); in experiment [4], 2.85 µM (inactive).
As for `CC(=O)Nc1ccc(-c2nnc(SCC(=O)Nc3cccc(Cl)c3)o2)cc1`, the GI50 was 14.3 µM (inactive) in experiment [1]; 1.36 µM (inactive) in experiment [6]; 17.9 µM (inactive) in experiment [2]; 15.3 µM (inactive) in experiment [3]; 10.9 µM (inactive) in experiment [4].
As for `CN(C)C(=S)/N=c1\ss/c(=N\C(=S)N(C)C)n1Cc1ccco1`, the GI50 in experiment [1], in experiment [6], in experiment [2], in experiment [3] and in experiment [4] was > 100 µM (inactive) throughout.
As to `O=C1[C@@H]2C3C=CC([C@H]4C(=O)N(CO)C(=O)[C@@H]34)[C@@H]2C(=O)N1CO`, the GI50 was 48.5 µM (inactive) in experiment [1]; 32.1 µM (inactive) in experiment [6]; > 42.7 µM (inactive) in experiment [2]; > 31.6 µM (inactive) in experiment [3]; 79.1 µM (inactive) in experiment [4]; > 100 µM (inactive) in experiment [5].
For the compound `c1ccc2c(c1)N=C(c1cccc3ccccc13)CC(c1cccc3ccccc13)S2` (configuration not stated), the GI50 in experiment [1] is 3.6 µM (inactive); in experiment [6] it was 2.74 µM (inactive); in experiment [2], 4.46 µM (inactive); in experiment [3], 3.24 µM (inactive); in experiment [4], 3.27 µM (inactive); in experiment [5] it was 9.79 µM (inactive).
`CCC(C)OC(=O)C1C2CCC(O2)C1C(=O)O` (configuration not stated): the GI50 was > 51.4 µM (inactive) in experiment [1]; > 41.6 µM (inactive) in experiment [6]; > 42.8 µM (inactive) in experiment [2]; > 44.9 µM (inactive) in experiment [3]; > 62.7 µM (inactive) in experiment [4].
Turning to `Cc1ccc(/C=C/C(=O)c2cccc3ccccc23)cc1`, the GI50 is > 10 µM (inactive) in experiment [1]; 19 µM (inactive) in experiment [2]; 15.8 µM (inactive) in experiment [3]; 12.7 µM (inactive) in experiment [4]; 15.3 µM (inactive) in experiment [5].
As to `O=C1NC2C3CC(OCc4ccccc4)(OCc4ccccc4)C2OC3O1` (configuration not stated), the GI50 in experiment [1] was > 50 µM (inactive); in experiment [6] it was > 50 µM (inactive); in experiment [2], > 50 µM (inactive); in experiment [4] it was < 0.005 µM (active); in experiment [5] it was > 50 µM (inactive).
`CCOC(=O)c1[nH]c2c(OC)n[n+]([O-])cc2c1[N+](=O)[O-]`: the GI50 was 17.2 µM (inactive) in experiment [1]; 22.2 µM (inactive) in experiment [6]; 15.5 µM (inactive) in experiment [3]; 17.3 µM (inactive) in experiment [4]; 16.1 µM (inactive) in experiment [5].
`Clc1ccc(C2=Nc3ccccc3SC(c3ccc(Cl)c(Cl)c3)C2)c(Cl)c1` (configuration not stated): the GI50 in experiment [1] is 12.6 µM (inactive); in experiment [6], 9.89 µM (inactive); in experiment [2], 11.5 µM (inactive); in experiment [3], 18.3 µM (inactive); in experiment [4], 15.3 µM (inactive); in experiment [5] it was 12.4 µM (inactive).
Turning to `CCc1cccc(NC(=O)c2cc(/C=C/c3ccccc3)nc(S)n2)c1`, the GI50 in experiment [6], in experiment [2], in experiment [3] and in experiment [4] was > 100 µM (inactive) throughout.
With `Clc1ccc(SCCCCCCCCCCSc2ccc(Cl)cc2)cc1`, the GI50 was > 100 µM (inactive) in experiment [1]; > 100 µM (inactive) in experiment [6]; > 100 µM (inactive) in experiment [2]; > 63.7 µM (inactive) in experiment [3]; > 100 µM (inactive) in experiment [4]; > 100 µM (inactive) in experiment [5].

The values are drawn from ChEMBL document CHEMBL1201862, “PubChem BioAssay data set” (2004).
